From ChEMBL document CHEMBL3352801, “Synthesis and lipid-lowering evaluation of 3-methyl-1H-purine-2,6-dione derivatives as potent and orally available anti-obesity agents” (Eur J Med Chem, 2014)
Active and inactive are the calls of the source. No cut-off for these calls is given here.

Experiments:
Mus musculus [1] = assay: Antiobesity activity in diet-induced obese C57Bl/6 mouse assessed as change in insulin level at 150 mg/kg/day, po for 4 weeks administered with high-fat diet (reference value: 4.31 +/- .82 mU); format: functional
Mus musculus [2] = assay: Antiobesity activity in diet-induced obese C57Bl/6 mouse assessed as change in insulin level at 150 mg/kg/day, po for 4 weeks administered with high-fat diet (reference value: 11.85 +/- 2.6 mU); format: functional
Mus musculus [3] = assay: Antiobesity activity in diet-induced obese C57Bl/6 mouse assessed as reduction in FFA level at 150 mg/kg/day, po for 4 weeks administered with high-fat diet (reference value: 25.07 +/- 3.49 ng/L); format: functional
Mus musculus [4] = assay: Antiobesity activity in diet-induced obese C57Bl/6 mouse assessed as reduction in fasting blood glucose at 150 mg/kg/day, po for 4 weeks administered with high-fat diet (reference value: 4.88 +/- 0.75 mM); format: functional
Mus musculus [5] = assay: Antiobesity activity in diet-induced obese C57Bl/6 mouse assessed as reduction in FFA level at 150 mg/kg/day, po for 4 weeks administered with high-fat diet (reference value: 19.55 +/- 1.57 ng/L); format: functional
Mus musculus [6] = assay: Antiobesity activity in diet-induced obese C57Bl/6 mouse assessed as reduction in triglyceride level at 150 mg/kg/day, po for 4 weeks administered with high-fat diet (reference value: 0.93 +/- 0.09 mM); format: functional
Mus musculus [7] = assay: Increase in glucose tolerance in diet-induced obese C57Bl/6 mouse assessed as induction of insulin secretion at 150 mg/kg/day, po for 4 weeks by oral glucose tolerance test; format: functional, organism-based
Mus musculus [8] = assay: Antiobesity activity in diet-induced obese C57Bl/6 mouse assessed as loss of liver weight at 150 mg/kg/day, po for 4 weeks administered with high-fat diet; format: functional
Mus musculus [9] = assay: Antiobesity activity in diet-induced obese C57Bl/6 mouse assessed as reduction in hepatic triglyceride level at 150 mg/kg/day, po for 4 weeks administered with high-fat diet by Oil Red O staining-based histological method; format: functional; design: scale not given: the % may be the effect or the level left
Mus musculus [10] = assay: Antiobesity activity in diet-induced obese C57Bl/6 mouse assessed as increase in HDL level at 150 mg/kg/day, po for 4 weeks administered with high-fat diet (reference value: 0.60 +/- 0.17 mM); format: functional
Mus musculus [11] = assay: Antiobesity activity in diet-induced obese C57Bl/6 mouse assessed as reduction in fasting blood glucose at 150 mg/kg/day, po for 4 weeks administered with high-fat diet (reference value: 5.0 +/- 1.30 mM); format: functional
Mus musculus [12] = assay: Antiobesity activity in diet-induced obese C57Bl/6 mouse assessed as increase in HDL level at 150 mg/kg/day, po for 4 weeks administered with high-fat diet (reference value: 1.02 +/- 0.13 mM); format: functional
Mus musculus [13] = assay: Decrease in insulin resistance in diet-induced obese C57Bl/6 mouse at 150 mg/kg/day, po for 4 weeks by insulin tolerance test; format: functional, organism-based
Mus musculus [14] = assay: Antiobesity activity in diet-induced obese C57Bl/6 mouse assessed as reduction in body weight at 150 mg/kg/day, po for 4 weeks administered with high-fat diet; format: functional; design: scale not given: the % may be the effect or the level left
Mus musculus [15] = assay: Antiobesity activity in diet-induced obese C57Bl/6 mouse assessed as reduction in LDL level at 150 mg/kg/day, po for 4 weeks administered with high-fat diet (reference value: 0.13 +/- 0.02 mM); format: functional
Mus musculus [16] = assay: Antiobesity activity in diet-induced obese C57Bl/6 mouse assessed as reduction in LDL level at 150 mg/kg/day, po for 4 weeks administered with high-fat diet (reference value: 0.14 +/- 0.07 mM); format: functional
Mus musculus [17] = assay: Antiobesity activity in diet-induced obese C57Bl/6 mouse assessed as reduction in triglyceride level at 150 mg/kg/day, po for 4 weeks administered with high-fat diet (reference value: 0.96 +/- 0.14 mM); format: functional
Mus musculus [18] = assay: Antiobesity activity in diet-induced obese C57Bl/6 mouse assessed as reduction in HOMA-IR value at 150 mg/kg/day, po for 4 weeks administered with high-fat diet (reference value: 0.94 +/- 0.23 no_unit); format: functional
Mus musculus [19] = assay: Antiobesity activity in diet-induced obese C57Bl/6 mouse assessed as loss of epididymal fat mass at 150 mg/kg/day, po for 4 weeks administered with high-fat diet; format: functional

Structure (SMILES): CN(C)C(=N)NC(=N)N [METFORMIN]
- Activity (Mus musculus [1]): 5.48 mU
- Activity (Mus musculus [2]): 8.1 mU
- Activity (Mus musculus [3]): 26.05 ng/L
- Activity (Mus musculus [4]): 7.57 mM
- Activity (Mus musculus [5]): 21.56 ng/L
- Activity (Mus musculus [6]): 0.92 mM
- Activity (Mus musculus [7]): Active
- Activity (Mus musculus [8]): 23.2%
- Activity (Mus musculus [9]): 10.73%
- Activity (Mus musculus [10]): 0.82 mM
- Activity (Mus musculus [11]): 5.32 mM
- Activity (Mus musculus [12]): 1.38 mM
- Activity (Mus musculus [13]): Active
- Activity (Mus musculus [14]): 19.08%
- Activity (Mus musculus [15]): 0.17 mM
- Activity (Mus musculus [16]): 0.12 mM
- Activity (Mus musculus [17]): 1.07 mM
- Activity (Mus musculus [18]): 1.73
- Activity (Mus musculus [19]): 22.94%
